Measurements published in patent publication US12240844B2 (Voronoi, Inc., priority 2019, dated 2025).

How the values were obtained:
[1] = biological target: LRRK2 (Homo sapiens, UniProt Q5S007); assay: LRRK2 enzyme inhibition, ADP-Glo kinase assay; type: biochemical; set-up: purchased Invitrogen PR8604B
Outline: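 ADP-Glo luminescence read after 2 h at 25° C, 10 μM ATP, 25 ng purified human LRRK2 and […] substrate in Tris-HCl pH7.4 buffer with MgCl2, BSA, DTT. Twelve final concentrations, 50 μM down to 0.000001024 μM; IC50 (nM) from inhibition relative to untreated solvent control.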

[2] = system: TNF-α; assay: TNF-α secretion inhibition in LPS-treated THP-1 cells (ELISA); type: cell-based; conditions: Homo sapiens, compound 0.5 μM, LPS 500 ng/ml, 24 hours, read-out: THP-1/TNF-a (% inhib)
Method: (§1) In order to evaluate the cytokine secretion inhibitory efficacy of mononuclear cells, THP-1 cells (ATCC, #TIB-202) as a human-derived monocyte cell line were cultured in RPMI-1640 (Hyclone, SH30027.01) media in which 10% fetal bovine serum (Hyclone, SH30084.03), 1% penicillin streptomycin (Welgene, LS202-02) and 50 μM 2-Mercaptoethanol (Gibco, #21985023) were contained. In the test, 1.5-2×10^5 cells/250 μl per each well were dispensed in a 48-well plate (SPL, #30048) and incubated in an incubator at 37° C. and 5% CO2 for 16 hours, and then the compounds were diluted in DMSO so that the final concentration was 0.5 μM. It was treated with Lipopolysaccharides (LPS) (sigma, #L6529) […]. After treatment with the compound, the LPS was treated so that the final concentration was 500 ng/ml, and then the cell culture fluid was collected after culturing for 24 hours, and the degrees of the cytokines IL-6 (R&D system, #D6050) and TNF-α (R&D system, #DTA00D) contained in the culture fluid were collected using each ELISA kit. After performing the experiment according to the manufacturer's instructions, the absorbance at 450 nm was measured and analyzed using a microplate reader.

[3] = biological target: LRRK2 (G2019S) (Homo sapiens, UniProt Q5S007, G2019S); assay: LRRK2 G2019S enzyme inhibition, ADP-Glo kinase assay; type: biochemical; set-up: purchased SignalChem L10-12GG
LRRK2 (G2019S), sequence (Q5S007 970-2527 G2019S limits assumed): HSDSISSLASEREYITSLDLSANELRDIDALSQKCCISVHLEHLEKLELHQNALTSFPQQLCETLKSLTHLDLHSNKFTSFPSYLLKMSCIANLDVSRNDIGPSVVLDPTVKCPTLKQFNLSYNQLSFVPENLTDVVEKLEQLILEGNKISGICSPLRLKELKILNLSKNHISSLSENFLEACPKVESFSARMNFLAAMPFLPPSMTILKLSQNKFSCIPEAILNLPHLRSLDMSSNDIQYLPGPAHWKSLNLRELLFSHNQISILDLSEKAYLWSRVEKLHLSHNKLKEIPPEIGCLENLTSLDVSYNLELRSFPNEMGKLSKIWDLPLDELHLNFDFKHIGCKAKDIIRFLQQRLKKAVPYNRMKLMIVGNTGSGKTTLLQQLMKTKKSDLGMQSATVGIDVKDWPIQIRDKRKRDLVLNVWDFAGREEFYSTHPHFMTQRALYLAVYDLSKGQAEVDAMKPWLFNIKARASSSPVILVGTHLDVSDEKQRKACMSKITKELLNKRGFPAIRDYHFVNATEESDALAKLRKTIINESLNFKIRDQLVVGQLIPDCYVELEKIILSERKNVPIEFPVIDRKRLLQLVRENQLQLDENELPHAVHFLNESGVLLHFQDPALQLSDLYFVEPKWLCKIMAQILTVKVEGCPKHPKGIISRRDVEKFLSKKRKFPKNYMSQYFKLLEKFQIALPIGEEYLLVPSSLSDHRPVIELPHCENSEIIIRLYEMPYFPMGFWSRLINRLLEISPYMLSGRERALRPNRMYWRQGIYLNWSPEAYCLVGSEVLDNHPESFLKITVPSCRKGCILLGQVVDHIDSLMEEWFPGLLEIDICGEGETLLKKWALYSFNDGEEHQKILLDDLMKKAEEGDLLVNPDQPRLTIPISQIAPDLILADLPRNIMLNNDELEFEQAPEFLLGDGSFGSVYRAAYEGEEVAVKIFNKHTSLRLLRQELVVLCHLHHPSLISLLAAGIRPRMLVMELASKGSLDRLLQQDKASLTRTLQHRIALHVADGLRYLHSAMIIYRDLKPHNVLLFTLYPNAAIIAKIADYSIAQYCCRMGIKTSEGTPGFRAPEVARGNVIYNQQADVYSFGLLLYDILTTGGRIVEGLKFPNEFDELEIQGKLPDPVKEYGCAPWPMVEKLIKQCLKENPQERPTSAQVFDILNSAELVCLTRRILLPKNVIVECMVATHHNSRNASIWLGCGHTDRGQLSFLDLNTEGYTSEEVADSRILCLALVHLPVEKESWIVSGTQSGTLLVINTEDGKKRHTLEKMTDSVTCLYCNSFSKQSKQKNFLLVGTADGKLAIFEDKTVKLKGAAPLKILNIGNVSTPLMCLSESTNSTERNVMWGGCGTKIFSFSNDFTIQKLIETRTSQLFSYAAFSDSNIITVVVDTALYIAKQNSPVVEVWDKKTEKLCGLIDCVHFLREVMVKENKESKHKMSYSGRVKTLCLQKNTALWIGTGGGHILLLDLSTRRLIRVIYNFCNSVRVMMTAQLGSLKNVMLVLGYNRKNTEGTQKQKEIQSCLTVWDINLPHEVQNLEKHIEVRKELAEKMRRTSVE
Outline: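 Activity read as ADP-Glo luminescence, normalized to untreated solvent control, with IC50 (nM) fitted over 12 final compound levels (top 50 μM). Reaction: 2 h, 25° C, human LRRK2 G2019S 16 ng, ATP 25 μM, substrate 0.2 μg, in Tris-HCl pH 7.4 with MgCl2, BSA and DTT.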

[4] = biological target: T1, human GST-DYRK1A (full length) (Homo sapiens, UniProt Q13627); assay: GST-DYRK1A enzyme inhibition, ADP-Glo kinase assay; type: biochemical; conditions: read-out: DYRK1 IC50
T1 construct: purified human GST-DYRK1A (full length, Thermo scientifics) enzyme; GST; purchased Thermo scientifics
Outline: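 ADP-Glo luminescence quantified kinase activity after a 1 h, 25° C reaction of 10 ng full-length GST-tagged human DYRK1A, substrate and 10 uM ATP in Tris-HCl buffer pH 7.4 with MgCl2, BSA and DTT. Triplicate IC50 values (nM) calculated relative to untreated solvent control.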

[5] = system: IL-6; assay: IL-6 secretion inhibition in LPS-treated THP-1 cells (ELISA); type: cell-based; conditions: Homo sapiens, compound 0.5 μM, LPS 500 ng/ml, 24 hours, read-out: THP1/IL6 (% inhib)
Method: as §1

[6] = biological target: T2, human GST-CLK1 (129-end) (Homo sapiens, UniProt P49759); assay: GST-CLK1 enzyme inhibition, ADP-Glo kinase assay; type: biochemical; conditions: ATP 10 uM
T2 construct: purified human GST-CLK1 (129-end, Signalchem) enzyme; GST; purchased Signalchem
T2 sequence (P49759 129-484 limits assumed): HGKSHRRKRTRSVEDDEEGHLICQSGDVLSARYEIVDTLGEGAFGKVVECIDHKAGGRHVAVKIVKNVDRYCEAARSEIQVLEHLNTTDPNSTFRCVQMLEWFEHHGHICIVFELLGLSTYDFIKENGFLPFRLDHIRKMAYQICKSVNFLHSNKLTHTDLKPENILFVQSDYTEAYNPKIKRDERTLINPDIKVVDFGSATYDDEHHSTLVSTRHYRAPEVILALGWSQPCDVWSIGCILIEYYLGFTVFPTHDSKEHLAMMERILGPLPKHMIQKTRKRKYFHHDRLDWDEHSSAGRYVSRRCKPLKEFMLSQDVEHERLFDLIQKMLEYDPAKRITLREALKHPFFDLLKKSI
Outline: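 ADP formation was read by ADP-Glo luminescence after 1 h at 25° C with 3 ng human GST-CLK1 (129-end), substrate and 10 uM ATP in Tris pH 7.4 buffer containing MgCl2, BSA and DTT. Inhibition relative to untreated solvent control gave IC50 (nM), run in triplicate.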

[7] = system: human DYRK1A and Tau; assay: Tau phosphorylation inhibition, ClariCELL Kinase Cell-Based Assay (Carnabio)
Outline: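 HEK293 cells transiently expressing human DYRK1A and Tau were exposed to compound, then lysed. Released Tau was captured on plate and its phosphorylation quantified by ELISA with a phospho-Tau-specific antibody.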

[8] = biological target: T3, LRRK2, LRRK2 (G2019S), DYRK1, CLK1 and TTK kinases (Homo sapiens, UniProt Q13627); assay: Enzyme IC50 by Kinase HotSpot service (Reaction Biology Corporation), values marked with *; type: biochemical; conditions: DYRK1, ATP 10 uM
T3 construct: other: DYRK1; Kinase HotSpot service (Reaction Biology), ATP 10 uM
Method: Meanwhile, the enzyme IC50 measurement for some compounds was performed using Kinase HotSpot service (Reaction Biology Corporation); during the test, the ATP concentration was 10 uM, where all were conducted under the same condition; and the concentration of the compound was measured by giving a 3-fold concentration gradient with the highest concentration of […], where the values measured using Kinase HotSpot service (Reaction Biology Corporation) were marked with “*”.
All experimental methods were performed as provided in Kinase HotSpot Customer Protocol (http://www.reactionbiology.com//Kinase_Assay_Protocol).
In the table below, the following designations were used for the evaluation of enzyme inhibitory ability.

[9] = system: MDA-MB-231 cell line; assay: MDA-MB-231 cancer cell proliferation inhibition (Cell Titer-Glo); type: cell-based; conditions: Homo sapiens, MDA-MB-231 triple-negative breast cancer cell line, 72 hours
Outline: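 GI50 comes from CellTiter-Glo luminescence, read 10 min after reagent addition at RT, following 72 h compound treatment. Eleven concentrations were used (⅓ steps, highest 10 μM final) on 2000 cells/well. MDA-MB-231 and MDA-MB-468 were grown in DMEM, SHP-77 in RPMI.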

LRRK2, sequence (Q5S007 970-2527 limits assumed): as the sequence (Q5S007 970-2527 G2019S limits assumed) above, with S1050G counted along it

SMILES	IC50 [1]	IC50 [3]	IC50 [4]	IC50 [6]	IC50 [8]	GI50 [9]	inhibition at 0.5 µM [2]	inhibition at 0.5 µM [5]	inhibition at 0.25 µM [7]	inhibition at 0.5 µM [7]	inhibition at 1 µM [7]
CCNc1cc(Nc2ccc(C(=O)N3CC[C@@H](N4CCOCC4)C3)c3c2OCC3)nc2[nH]cc(C(F)(F)F)c12 [Example 213, (R)-(7-((4-(ethylamino)-3-(trifluoromethyl)-1H-pyrrolo[2,3-b]pyridin-6-yl)amino)-2,3-dihydrobenzofuran-4-yl)(3-morpholinopyrrolidin-1-yl)methanone]	101 to 300 nM	101 to 300 nM	101 to 300 nM	< 100 nM			2.6%	3.9%			
CCNc1cc(Nc2ccc(C(=O)N3CCC(N4CCN(C)CC4)CC3)c3c2OCC3)nc2[nH]cc(C(F)(F)F)c12 [Example 247, (7-((4-(ethylamino)-3-(trifluoromethyl)-1H-pyrrolo[2,3-b]pyridin-6-yl)amino)-2,3-dihydrobenzofuran-4-yl)(4-(4-methylpiperazin-1-yl)piperidin-1-yl)methanone]		< 100 nM	< 100 nM	< 100 nM			15.5%	31.9%	52.3%	76.8%	104%
CCNc1cc(Nc2ccc(C(=O)N3CCC(N(C)C)CC3)c3c2OCC3)nc2[nH]cc(C(F)(F)F)c12 [Example 249, (4-(dimethylamino)piperidin-1-yl)(7-((4-(ethylamino)-3-(trifluoromethyl)-1H-pyrrolo[2,3-b]pyridin-6-yl)amino)-2,3-dihydrobenzofuran-4-yl)methanone]		< 100 nM	< 100 nM	< 100 nM			10.1%	60.3%	62.4%	76.9%	82.9%
COc1cc(S(C)(=O)=O)ccc1Nc1cc(C2CC2)c2c(C(F)(F)F)c[nH]c2n1 [Example 224, 4-cyclopropyl-N-(2-methoxy-4-(methylsulfonyl)phenyl)-3-(trifluoromethyl)-1H-pyrrolo[2,3-b]pyridin-6-amine]	301 to 1000 nM	301 to 1000 nM		301 to 1000 nM	< 100 nM						
CS(=O)(=O)CCNc1cc(Nc2ccc(C(=O)N3CCOCC3)c3c2OCCO3)nc2[nH]cc(C(F)(F)F)c12 [Example 157, (8-((4-((2-(methylsulfonyl)ethyl)amino)-3-(trifluoromethyl)-1H-pyrrolo[2,3-b]pyridin-6-yl)amino)-2,3-dihydrobenzo [b] [1,4]dioxin-5-yl)(morpholino) methanone]	< 100 nM	< 100 nM	< 100 nM	< 100 nM			31%	29.1%			
CNc1cc(Nc2ccc(C(=O)N3CCC(N4CCOCC4)CC3)c3c2OCO3)nc2[nH]cc(C(F)(F)F)c12 [Example 235, (7-((4-(methylamino)-3-(trifluoromethyl)-1H-pyrrolo[2,3-b]pyridin-6-yl)amino)benzo[d][1,3]dioxol-4-yl)(4-morpholinopiperidin-1-yl)methanone]	< 100 nM		< 100 nM	< 100 nM			36.3%	22.9%			
CCNc1cc(Nc2ccc(C(=O)N3CCN(CC4CC4)CC3)c3c2OCC3)nc2[nH]cc(C(F)(F)F)c12 [Example 257, (4-(cyclopropylmethyl)piperazin-1-yl)(7-((4-(ethylamino)-3-(trifluoromethyl)-1H-pyrrolo[2,3-b]pyridin-6-yl)amino)-2,3-dihydrobenzofuran-4-yl)methanone]		< 100 nM	< 100 nM	< 100 nM			7.88%	44%			
CCNc1cc(Nc2ccc(C(=O)N3CCN(CCO)CC3)c3c2OCC3)nc2[nH]cc(C(F)(F)F)c12 [Example 253, (7-((4-(ethylamino)-3-(trifluoromethyl)-1H-pyrrolo[2,3-b]pyridin-6-yl)amino)-2,3-dihydrobenzofuran-4-yl)(4-(2-hydroxyethyl)piperazin-1-yl)methanone]		< 100 nM	< 100 nM	< 100 nM			9.83%	49.2%			
COc1cc(P(C)(C)=O)ccc1Nc1cc(C2CC2)c2c(C(F)(F)F)c[nH]c2n1 [Example 219, (4-((4-cyclopropyl-3-(trifluoromethyl)-1H-pyrrolo[2,3-b]pyridin-6-yl)amino)-3-methoxyphenyl) dimethylphosphine oxide]				301 to 1000 nM	< 100 nM						

The next lines start with results.

IC50 [1]	IC50 [3]	IC50 [4]	IC50 [6]	IC50 [8]	GI50 [9]	SMILES	inhibition at 0.5 µM [2]	inhibition at 0.5 µM [5]	inhibition at 0.25 µM [7]	inhibition at 0.5 µM [7]	inhibition at 1 µM [7]
			301 to 1000 nM	< 100 nM		COc1cc(P2(=O)CCN(C3CCOCC3)CC2)ccc1Nc1cc(C2CC2)c2c(C(F)(F)F)c[nH]c2n1 [Example 102, 4-(4-((4-cyclopropyl-3-(trifluoromethyl)-1H-pyrrolo[2,3-b]pyridin-6-yl)amino)-3-methoxyphenyl)-1-(tetrahydro-2H-pyran-4-yl)-1,4-azaphosphinane 4-oxide]					
< 100 nM		< 100 nM	< 100 nM		301 to 1000 nM	CNc1cc(Nc2ccc(P3(=O)CCN(C4COC4)CC3)cc2OC)nc2[nH]cc(C(F)(F)F)c12 [Example 212, 4-(3-methoxy-4-((4-(methylamino)-3-(trifluoromethyl)-1H-pyrrolo[2,3-b]pyridin-6-yl)amino)phenyl)-1-(oxetan-3-yl)-1,4-azaphosphinane 4-oxide]	2.7%	29.1%			
	< 100 nM	< 100 nM	< 100 nM			CCNc1cc(Nc2ccc(C(=O)N3CCC(N4CCN(C5CC5)CC4)CC3)c3c2OCC3)nc2[nH]cc(C(F)(F)F)c12 [Example 264, (4-(4-cyclopropylpiperazin-1-yl)piperidin-1-yl)(7-((4-(ethylamino)-3-(trifluoromethyl)-1H-pyrrolo[2,3-b]pyridin-6-yl)amino)-2,3-dihydrobenzofuran-4-yl)methanone]	11.2%	45.5%			
101 to 300 nM	< 100 nM	< 100 nM	< 100 nM			CNc1cc(Nc2ccc(C(=O)N3CCOCC3)c3c2OCO3)nc2[nH]cc(C(F)(F)F)c12 [Example 38, (7-((4-(methylamino)-3-(trifluoromethyl)-1H-pyrrolo[2,3-b]pyridin-6-yl)amino)benzo [d] [1,3]dioxol-4-yl)(morpholino) methanone]	32.8%	36.1%			
